In PubChem BioAssay (NCI) one finds TGI data, which are given here for twelve molecules.

Among the test systems are NCI-H460 lung; RXF 393 renal; SK-MEL-5 melanoma; 786-0 renal; HOP-92 NSCLC; SK-MEL-2 melanoma; UACC-62 melanoma; BT-549 breast; NCI/ADR-RES ovarian; SF-295 CNS; KM12 colon.
Common to all, as to experiment: NCI-60 cell line screen, 48 h

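Test compounds were applied to cells in 96-well plates for 48 hours at 5 doses. The concentration for full growth arrest is given as TGI.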 A value given as a limit tells only on which side of the number the result lay.

As to `COc1ccc(CNc2nc(NCc3ccc(OC)c(OC)c3)nc(NC3CCCCC3)n2)cc1`, the TGI in the assay on NCI-H460 lung was more than 100 µM; in the assay on RXF 393 renal it was 6.22 µM; with SK-MEL-5 melanoma, 7.41 µM; in the assay on 786-0 renal, more than 100 µM; in the assay with HOP-92 NSCLC it was more than 100 µM; with SK-MEL-2 melanoma it was more than 100 µM. Further, the TGI is more than 100 µM in the assay with UACC-62 melanoma; more than 100 µM in the assay on BT-549 breast; 17.5 µM with NCI/ADR-RES ovarian; more than 100 µM with SF-295 CNS; 17 µM with KM12 colon.

Take `CC(C)/C(Cl)=N\OC(=O)Nc1ccc(S(N)(=O)=O)cc1`: the TGI is 41.6 µM in the assay with NCI-H460 lung; 25.2 µM in the assay with RXF 393 renal; 29.4 µM in the assay on SK-MEL-5 melanoma; 31 µM in the assay with 786-0 renal; 10.1 µM in the assay with HOP-92 NSCLC; 34.1 µM with SK-MEL-2 melanoma. Besides, the TGI with UACC-62 melanoma stood at 37 µM; in the assay on BT-549 breast, 21.3 µM; in the assay on NCI/ADR-RES ovarian, 40.5 µM; with SF-295 CNS, 29.3 µM; with KM12 colon, 33.3 µM.

`CC(C)C1/C(=N/O)CC(c2ccccc2)N(N=O)C1c1ccccc1` (configuration not stated): the TGI is 67.5 µM in the assay with NCI-H460 lung; more than 100 µM in the assay on RXF 393 renal; 95.9 µM with SK-MEL-5 melanoma; more than 100 µM in the assay on 786-0 renal; 78.6 µM with HOP-92 NSCLC; 73.6 µM in the assay on SK-MEL-2 melanoma. Moreover, the TGI is 45.3 µM in the assay with UACC-62 melanoma; more than 100 µM in the assay on BT-549 breast; more than 100 µM in the assay with NCI/ADR-RES ovarian; more than 100 µM in the assay on SF-295 CNS; more than 100 µM in the assay on KM12 colon.

With `CC[C@@]1(O)C(=O)OCc2c1cc1n(c2=O)Cc2c-1nc1ccccc1c2/C=N\NC(=O)CN`, the TGI in the assay on NCI-H460 lung was 4.66 µM; in the assay on RXF 393 renal, 7.66 µM; in the assay with SK-MEL-5 melanoma, 1.88 µM; with 786-0 renal it was 5.7 µM; in the assay with HOP-92 NSCLC, 21.8 µM; in the assay on SK-MEL-2 melanoma, more than 100 µM. In addition, the TGI is 0.842 µM in the assay with UACC-62 melanoma; more than 95.4 µM in the assay with BT-549 breast; more than 76.5 µM with NCI/ADR-RES ovarian; 6.13 µM in the assay on SF-295 CNS; more than 100 µM in the assay with KM12 colon.

In the case of `COc1cc(/C=C/C(=N\NS(=O)(=O)c2ccc(C)cc2)c2sc(NNC(C)=O)nc2C)ccc1O`, the TGI in the assay with NCI-H460 lung, in the assay with RXF 393 renal, in the assay on SK-MEL-5 melanoma, in the assay with 786-0 renal, in the assay with HOP-92 NSCLC and in the assay on SK-MEL-2 melanoma was more than 100 µM throughout. The TGI with UACC-62 melanoma, with BT-549 breast, with NCI/ADR-RES ovarian, in the assay on SF-295 CNS and with KM12 colon was more than 100 µM each time.

Take `Clc1cc(OC2C3CC4CC(C3)CC2C4)nc(Cl)n1` (configuration not stated): the TGI in the assay with NCI-H460 lung is 31.6 µM; in the assay on RXF 393 renal it was 27.4 µM; in the assay on SK-MEL-5 melanoma, 32.1 µM; with 786-0 renal, 33.5 µM; in the assay with HOP-92 NSCLC it was 3.41 µM; in the assay on SK-MEL-2 melanoma it was 25.8 µM. Further, the TGI in the assay on UACC-62 melanoma was 24.7 µM; in the assay with BT-549 breast it was 52.4 µM; with NCI/ADR-RES ovarian it was 88.5 µM; in the assay on SF-295 CNS it was 37.7 µM; in the assay on KM12 colon, 39.1 µM.

With `O=c1[nH][nH]c(=O)n1Cc1ccccc1Cn1c(=O)[nH][nH]c1=O`, the TGI in the assay on NCI-H460 lung, in the assay on RXF 393 renal, with SK-MEL-5 melanoma, with 786-0 renal, in the assay with HOP-92 NSCLC and in the assay on SK-MEL-2 melanoma was more than 100 µM in each case. Besides, the TGI in the assay on UACC-62 melanoma, in the assay with BT-549 breast, in the assay on NCI/ADR-RES ovarian, with SF-295 CNS and in the assay with KM12 colon was more than 100 µM in each case.

On to `C=C(C1=CC(=O)C(C)(C)O1)[C@@H]1CC=C([C@@H]2CC[C@H]3[C@@]2(C)CC[C@H]2C(C)(C)C(=O)[C@H](O)C[C@]32C)[C@H](O)O1`, for which the TGI with NCI-H460 lung was 31.6 µM; in the assay on RXF 393 renal, 3.59 µM; in the assay with SK-MEL-5 melanoma it was 24.1 µM; in the assay on 786-0 renal, 0.79 µM; with HOP-92 NSCLC it was 4.11 µM; in the assay with SK-MEL-2 melanoma, 5.56 µM. In addition, the TGI with UACC-62 melanoma was found to be 14.9 µM; in the assay on BT-549 breast, 21.6 µM; with NCI/ADR-RES ovarian it was 25.4 µM; in the assay with SF-295 CNS, 22 µM; in the assay with KM12 colon, 20.4 µM.

On to `C=C1c2nc3ccccc3n2C=C(c2ccccc2)N1c1ccc([N+](=O)[O-])cc1`, for which the TGI stood at 6.6 µM with NCI-H460 lung; 16 µM with RXF 393 renal; 40.8 µM in the assay on SK-MEL-5 melanoma; 4.13 µM with 786-0 renal; 21.9 µM with HOP-92 NSCLC; 56.3 µM in the assay with SK-MEL-2 melanoma. The TGI stood at 32.3 µM in the assay with UACC-62 melanoma; 46.4 µM in the assay on BT-549 breast; 44.5 µM with NCI/ADR-RES ovarian; 18.5 µM in the assay with SF-295 CNS; 13.8 µM in the assay with KM12 colon.

Take `C(/c1ccco1)=c1/nc(-c2ccccc2)n2c1nc1ccccc12`: the TGI with NCI-H460 lung, with RXF 393 renal, in the assay on SK-MEL-5 melanoma, in the assay on 786-0 renal, with HOP-92 NSCLC and in the assay on SK-MEL-2 melanoma was more than 100 µM in each case. Moreover, the TGI in the assay on UACC-62 melanoma was more than 100 µM; in the assay with BT-549 breast, 94.4 µM; in the assay on NCI/ADR-RES ovarian, more than 100 µM; in the assay on SF-295 CNS it was more than 100 µM; in the assay with KM12 colon it was more than 100 µM.

For `COC(=O)c1cc2c(n1S(=O)(=O)c1ccc(C)cc1)C(=O)C(=O)c1[nH]cc(C(=O)OCc3ccccc3)c1-2`, the TGI in the assay with NCI-H460 lung is 2.83 µM; in the assay with RXF 393 renal, 0.824 µM; with SK-MEL-5 melanoma, 0.064 µM; with 786-0 renal, 1.07 µM; with HOP-92 NSCLC, 0.725 µM; in the assay with SK-MEL-2 melanoma, 0.358 µM. In addition, the TGI in the assay on UACC-62 melanoma came out at 0.138 µM; with BT-549 breast, 0.334 µM; with NCI/ADR-RES ovarian, 5.26 µM; in the assay with SF-295 CNS, 0.259 µM; in the assay with KM12 colon it was 0.563 µM.

Consider `O=C1/C(=C/c2ccc(O)cc2)CC/C1=C\c1ccc(O)cc1`, for which the TGI in the assay on NCI-H460 lung, in the assay with RXF 393 renal, in the assay with SK-MEL-5 melanoma, in the assay on 786-0 renal, in the assay with HOP-92 NSCLC and with SK-MEL-2 melanoma was more than 100 µM in each case. Also, the TGI in the assay on UACC-62 melanoma, in the assay with BT-549 breast, in the assay on NCI/ADR-RES ovarian, in the assay on SF-295 CNS and with KM12 colon was more than 100 µM throughout.
